Where two headings read alike, the source gives them in different places.
Columns and labels:
[1] = system: tomato plant leaves; conditions: in vivo
[2] = system: tomato leaf transpiration; assay: Tomato leaf transpiration inhibition after foliar application (LI-1600 Steady State Porometer); format: in vivo, Tomato (variety: Rutgers)
[3] = system: tomato plant leaves; assay: Phytotoxicity study: number of injured leaves after foliar application; conditions: for Number of injured leaves: 25 ppm ABA analog alone, one foliar application; for Phytotoxicity (in words): 25 ppm alone, 10-day experimental period

With N.N.O=S(=O)(O)O [(NH4)2SO4, ammonium sulfate] the “Phytotoxicity (in words)” value [1] was “showed phytotoxicity”.
In the case of C#CC1(C)CC(=O)C=C(C)C1(O)/C=C/C(C)=C\C(=O)OC (centres unmarked) [PBI-429, 8′ acetylene-ABA methyl ester], the “Transpiration rate (% of control)” value ([2]; 25 ppm alone, 1 day after treatment) is reported as 60 % of control, the “Transpiration rate (% of control)” value ([2]; 25 ppm alone, 2 days after treatment) is reported as 42 % of control and the “Transpiration rate (% of control)” value ([2]; 25 ppm alone, 3 days after treatment) is reported as 64 % of control. The “Transpiration rate (% of control)” value ([2]; 25 ppm alone, 4 days after treatment) was 63 % of control, the “Transpiration rate (% of control)” value ([2]; 25 ppm alone, 7 days after treatment) was 87 % of control and the “Transpiration rate (% of control), Average” value ([2]; 25 ppm alone, average over days 1-7) was 63 % of control. For the same compound, the “Number of injured leaves” value ([3]; 5 days after treatment) was 0.0, the “Number of injured leaves” value ([3]; 10 days after treatment) was 0.0 and the “Phytotoxicity (in words)” value [3] was “did not show any phytotoxicity”.
For C#CC1(C)CC(=O)C=C(C)C1(O)C=CC(C)=CC(=O)O (centres unmarked) [PBI-524, 8′ acetylene-ABA, acid], the “Number of injured leaves” value ([3]; 5 days after treatment) was 0.0, the “Number of injured leaves” value ([3]; 10 days after treatment) was 0.0 and the “Phytotoxicity (in words)” value [3] was “did not show any phytotoxicity”.
NC(N)=O [Urea, urea] was tested, and the “Transpiration rate (% of control)” value ([2]; 1 mM alone, 1 day after treatment) was 103 % of control, the “Transpiration rate (% of control)” value ([2]; 1 mM alone, 2 days after treatment) was 98 % of control and the “Transpiration rate (% of control)” value ([2]; 1 mM alone, 3 days after treatment) was 98 % of control. The “Transpiration rate (% of control)” value ([2]; 1 mM alone, 4 days after treatment) was 100 % of control, the “Transpiration rate (% of control)” value ([2]; 10 mM alone, 1 day after treatment) was 101 % of control and the “Transpiration rate (% of control)” value ([2]; 10 mM alone, 2 days after treatment) was 103 % of control. For the same compound, the “Transpiration rate (% of control)” value ([2]; 10 mM alone, 3 days after treatment) was 106 % of control, the “Transpiration rate (% of control)” value ([2]; 10 mM alone, 4 days after treatment) was 101 % of control and the “Transpiration rate (% of control)” value ([2]; 100 mM alone, 1 day after treatment) was 102 % of control. The “Transpiration rate (% of control)” value ([2]; 100 mM alone, 2 days after treatment) was 102 % of control, the “Transpiration rate (% of control)” value ([2]; 100 mM alone, 3 days after treatment) was 107 % of control and the “Transpiration rate (% of control)” value ([2]; 100 mM alone, 4 days after treatment) was 102 % of control. For the same compound, the “Effect on tomato leaf transpiration (in words)” value ([2]; 1, 10 or 100 mM alone, 4-day experimental period) was “Neither urea nor ammonium nitrate at any of three tested concentrations significantly reduced tomato leaf transpiration”.

From US8247349B2, “Enhanced abscisic acid analog and fertilizer performance” (Valent BioSciences Corporation, priority 2007, dated 2012)
